{
  "source": "patent US20240384268A1",
  "about": "“Oligonucleotides” (Hudson Institute of Medical Research, priority 2021, published 2024)",
  "key": {"mouse cGAS": {"target": "T1, mouse cGAS (Mus musculus, UniProt Q8C6L5)", "T1 construct": "endogenous in cells; host or cells: LL171 (mouse L929 cells with ISRE-Luciferase)", "T1 sequence (Q8C6L5 whole entry)": "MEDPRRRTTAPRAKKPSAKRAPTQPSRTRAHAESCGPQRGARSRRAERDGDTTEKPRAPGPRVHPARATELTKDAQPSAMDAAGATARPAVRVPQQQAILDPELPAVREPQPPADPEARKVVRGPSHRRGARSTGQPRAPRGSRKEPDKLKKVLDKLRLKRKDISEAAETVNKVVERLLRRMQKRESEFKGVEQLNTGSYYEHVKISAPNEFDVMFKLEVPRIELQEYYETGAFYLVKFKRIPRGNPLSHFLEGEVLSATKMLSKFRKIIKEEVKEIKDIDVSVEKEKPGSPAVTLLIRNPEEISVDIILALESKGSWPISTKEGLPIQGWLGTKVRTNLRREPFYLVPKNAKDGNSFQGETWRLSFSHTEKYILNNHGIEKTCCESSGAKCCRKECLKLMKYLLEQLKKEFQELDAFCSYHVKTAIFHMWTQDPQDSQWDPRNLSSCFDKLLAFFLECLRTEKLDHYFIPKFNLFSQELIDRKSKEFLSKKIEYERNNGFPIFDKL", "assay": "ISD45-driven ISRE-luciferase in mouse LL171 cells", "format": "cell-based", "details": "for inhibition of ISD45-driven ISRE-luciferase (in words): 2′OMe or PS oligos 50-600 nM, ISD45 2.5 μg/ml overnight; for effect on ISD-driven ISRE-luciferase, LNA and MOE ASOs (in words): 200 nM or indicated concentrations, ~30 min, ISD overnight (FIG. 22-24)", "procedure": "In such examples, inhibition of cGAS activity can be identified by observation of an overall decreased cGAS response of the cell population, or a lower proportion of cells having cGAS-positive activity as compared to positive control condition in which cells are treated with cGAS agonist in the absence of the oligonucleotide (or in the presence of an appropriate control inhibitory agent). In one example, THP-1 or HT-29 cells are transfected with ISD70 and incubated with an oligonucleotide. cGAS activity can then be determined by cytokine (e.g., IP-10 and/or IFNβ) expression (e.g., gene and/or protein expression) and/or secretion levels, such as by ELISA. A similar assay can be performed with LL171 cells transfected with ISD45. […] By way of example, cGAS enzymatic activity may be assessed in vitro using recombinant cGAS and then measuring activity thereof by way of a cGAMP ELISA.\nFor cGAS stimulations, cells were treated for indicated duration with ASOs, prior to transfection with ISD70 (human cells) or ISD45 (mouse cells) (the ASOs were not washed off prior to ISD transfection unless otherwise indicated). The cGAS ligands ISD45 (Stetson and Medzhitov, 2006) and ISD70 (also known as VACV-70 (Unterholzner et al., 2010)) (Table 1) were resuspended as follows: 5 1d of sense and 5 μl of antisense strands at 10 μg/μl were added to 90 μl PBS under sterile conditions, heated at 75° C. for 30 min, prior to letting cool down at room temperature and aliquoting (stock at 1 μg/1 l). The ISDs were transfected at a concentration of […] at a ratio of 1 μg:1 μl with Lipofectamine 2000 in Opti-MEM (Thermo Fisher Scientific). HEK-TLR3, HEK-TLR7 and […] were treated with indicated concentration of ASOs for 20-50 min, prior to stimulation with poly(I:C) (Invivogen), R848 (Invivogen), Motolimod (MedChemExpress) and the Class B CpG oligonucleotides ODN 2006 (synthesised by IDT and resuspended in RNase-free TE buffer [Table 1]), respectively. The TLR2/1 agonist PAM3CSK4 (Invivogen), the TLR4 agonist lipopolysaccharide (Invivogen), the Class B CpG oligonucleotides ODN 1826 (synthesised by IDT and resuspended in RNase-free TE buffer), the mouse Sting agonist DMXAA (Cayman) and the human STING agonist (compound #3 from (Raanjulu et al., 2018), referred to as GSK herein—kind gift from Cancer Therapeutics CRC, Australia) were used at indicated concentrations. Aspirin (Sigma—A2093) was resuspended in pure medium to 10 mM, filter sterilised and added to the cells at 2 mM final. All ASOs were synthesised by Integrated DNA Technologies (IDT), and resuspended in RNase-free TE buffer, pH 8.0 (Thermo Fisher Scientific). Cell viability was assessed by adding 1× fresh resazurin solution to the wells (10λ solution made up with 7 mg resazurin [Sigma—R7017] dissolved in 3.5 ml PBS, sterile filtered at […]) for 4 h, prior to reading at with a Fluostar OPTIMA (BMG LABTECH) plate-reader (fluorescence: Excitation 535 nm, Emission 590); wells with medium only and 1× resazurin were used as blanks.\nFollowing transfection, the cells were collected from the 6-wells and aliquoted into 96-wells, just before ASO and overnight TLR stimulation (as above described)."}, "[1]": {"target": "T2, Recombinant full-length human cGAS (Homo sapiens, UniProt Q8N884)", "T2 construct": "Recombinant full-length human cGAS (Cayman, #22810); purchased Cayman #22810", "T2 sequence (Q8N884 whole entry)": "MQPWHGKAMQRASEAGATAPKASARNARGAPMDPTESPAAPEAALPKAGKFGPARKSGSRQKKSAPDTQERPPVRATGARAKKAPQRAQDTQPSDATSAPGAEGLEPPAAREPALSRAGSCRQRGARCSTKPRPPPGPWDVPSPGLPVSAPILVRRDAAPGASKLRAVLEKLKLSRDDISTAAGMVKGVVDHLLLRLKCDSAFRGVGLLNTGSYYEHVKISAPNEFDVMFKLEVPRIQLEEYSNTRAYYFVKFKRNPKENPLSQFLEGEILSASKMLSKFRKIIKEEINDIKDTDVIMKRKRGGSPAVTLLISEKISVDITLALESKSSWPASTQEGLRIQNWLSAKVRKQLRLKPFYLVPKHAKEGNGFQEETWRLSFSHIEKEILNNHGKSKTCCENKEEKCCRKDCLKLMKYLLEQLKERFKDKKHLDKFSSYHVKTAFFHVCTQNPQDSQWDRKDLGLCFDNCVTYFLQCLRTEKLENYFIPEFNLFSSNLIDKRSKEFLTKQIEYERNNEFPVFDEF", "assay": "cGAS in vitro assay and cGAMP ELISA", "format": "biochemical", "details": "2.3 μM ISD70, 40 min; for cGAMP production driven by ISD70 (in words): 0.5 μM oligonucleotide", "procedure": "0.8 μg of Recombinant full-length human cGAS (Cayman, #22810) was used per single reaction in a 200 μl volume with 80 mM Tris-HCl (pH 7.5), 200 mM NaCl, 20 μM ZnCl2, 20 mM MgCl2, 0.25 mM GTP (Thermofisher #R0441) and 0.25 mM ATP (Thermofisher #R0461), with 20 μg of ISD70 (freshly annealed at 1 μg/l in PBS), and 2 μl C2-Mut1/A151 diluted in TE buffer (to get 0.5, 2 or 10 μM ODN concentration in 200 l). After 40 min at 37° C., 2.5 mM EDTA was added to each tube to stop the enzymatic reaction and the samples were either snap frozen and stored at −80° C. or directly processed for cGAMP ELISA. cGAMP levels were measured with the DetectX Direct 2′,3′-Cyclic GAMP Enzyme Immunoassay Kit (Arbor Assays), according to the manufacturer's protocol. Briefly, 50 μL of in vitro reaction were added per well of the kit microplate with 50 μL Assay buffer, 25 μL conjugate, and 25 μL Antibody per well, prior to a minimum of 2 h incubation. The standards were prepared with serial-dilution in Assay buffer. Quantification of cGAMP levels was performed on a Fluostar OPTIMA (BMG LABTECH) plate-reader at 450 nm."}, "cGAS": {"target": "cGAS (Mus musculus, UniProt Q8C6L5)", "sequence (Q8C6L5 whole entry)": "as the sequence (Q8C6L5 whole entry) above", "assay": "IFN-driven gene expression in Trex1-mutant primary BMDMs, RT-qPCR", "details": "50 nM ASO transfected 20 h"}},
  "note": "In the oligonucleotide strings, read from the 5' end, every base follows the letter of its sugar. An asterisk marks phosphorothioate; unmarked linkages are phosphodiester. Other units and linkages are bracketed, terminal groups are in braces. A string of capitals states the bases alone. d = 2'-deoxy (DNA); m = 2'-O-methyl",
  "data": [
    {"substance": "mG*mG*mU*A*T*C*C*C*C*C*C*C*C*C*C*C*C*C*C*C (GGUATCCCCCCCCCCCCCCC; antisense; sugars from the 5' end m3 d17, all phosphorothioate, methylation of C not given here) [[C2]Mut1-dC]", "values": [
      {"measurement": "inhibition of ISD45-driven ISRE-luciferase (in words)", "setting": "mouse cGAS", "result": "significantly more inhibitory than its precursor dC20"}
    ]},
    {"substance": "T*T*A* G*G*G* T*T*A* G*G*G* T*T*A* G*G*G* T*T*A* G*G*G [A151, reference compound]", "values": [
      {"measurement": "cGAMP production driven by ISD70 (in words)", "setting": "[1]", "result": "similarly reduced cGAMP production"},
      {"measurement": "basal expression of ISGs (Rsad2, Ifit1) in Trex1-mutant BMDMs (in words)", "setting": "cGAS", "result": "failed to inhibit these ISGs"}
    ]},
    {"substance": "GTGTCTGGAAGCTTCC (antisense; LNA-modified, pattern not given here) [CTNN2B-809 LNA V1]", "values": [
      {"measurement": "effect on ISD-driven ISRE-luciferase, LNA and MOE ASOs (in words)", "setting": "mouse cGAS", "result": "strongly potentiating the ISRE-Luciferase signal"}
    ]},
    {"substance": "GCAGGCTCAGTGATGT (antisense; LNA-modified, pattern not given here) [CTNN2B-1642 LNA V1]", "values": [
      {"measurement": "effect on ISD-driven ISRE-luciferase, LNA and MOE ASOs (in words)", "setting": "mouse cGAS", "result": "increased potentiation of ISD sensing"}
    ]},
    {"substance": "mC*mG*mU*T*T*C*C*C*C*C*C*C*C*C*C*C*C*C*C*C (CGUTTCCCCCCCCCCCCCCC; antisense; sugars from the 5' end m3 d17, all phosphorothioate, methylation of C not given here) [[C2]Mut1-v3-dC]", "values": [
      {"measurement": "inhibition of ISD45-driven ISRE-luciferase (in words)", "setting": "mouse cGAS", "result": "lacked significant inhibitory activity"}
    ]},
    {"substance": "mG*mC*mG*mG*mU*A*T*C*C*A*T*G*T*C*C*mC*mA*mG*mG*mC (mG*mC*mG*mG*mU*dA*dT*dC*dC*dA*dT*dG*dT*dC*dC*mC*mA*mG*mG*mC; antisense) [C2-Mut1]", "values": [
      {"measurement": "inhibition of ISD45-driven ISRE-luciferase (in words)", "setting": "mouse cGAS", "result": "significantly more inhibitory"},
      {"measurement": "cGAMP production driven by ISD70 (in words)", "setting": "[1]", "result": "similarly reduced cGAMP production"},
      {"measurement": "inhibitory activity on cGAMP production relative to A151", "setting": "[1]; 2 μM oligonucleotide", "result": "about 2 fold"},
      {"measurement": "basal expression of ISGs (Rsad2, Ifit1) in Trex1-mutant BMDMs (in words)", "setting": "cGAS", "result": "significantly decreased the basal expression of two ISGs"}
    ]}
  ]
}
